Laboratory results published in article PMC3435281 (PLoS ONE, 2012).
“Also recorded” adds a separate entry of the source.

Assays:
[1] = test system: C57BL/6J mice (AHR^b); experiment: In vivo hepatic microsomal EROD activity, C57BL/6J; design: species or system mouse; details: oral 30, 80 or 120 mg/kg, 48 hours
Description: We utilized the wild type rat hepatoma cell line, 5L, which harbors the high affinity AHR isoform, and our newly created AHR^d-15 cell line. […] Groups of control mice were given corn oil alone or BNF at the concentration of 120 mg/kg.
Figure 3 In Vitro dose response curves. A. Rat hepatoma cell lines bearing the murine AHR^d (AHR^d-15) or the rat AHR^b (5L) were incubated with increasing doses of TCDD in 96-well plates. After 40 hours, EROD activity was performed from whole cell lysate. (n = 3). […] (n = 3). C. Same assay as in A, with increasing doses of BNF. (n = 2). […] Following 48 hours, hepatic microsomal proteins were isolated and used for the assessment of EROD activity. Animals were treated in groups of 4. Error bars: S.D.
Hepatic microsomes were prepared by homogenizing 0.5 g of liver tissue in 5 mL of MENG buffer (25 mM buffer sodium morpholinopropane sulfonate buffer (pH 7.5) containing 0.025% (w/v) NaN3, 1 mM EGTA and 10% (v/v) glycerol). The homogenate was subjected to centrifugation at 10,000×g for 20 minutes, followed by centrifugation of the supernatant for 1 hour at 100,000×g and 4°C. The pellet was dissolved in 15 mM Tris-HCl buffer containing 250 mM sucrose (pH 8.0) and aliquots were stored at −80°C. Protein concentration was determined using the Bicinchoninic Acid Protein Assay Reagent (Pierce Biotechnology, Rockford, IL). […]

[2] = test system: AHR^−/− splenocytes; experiment: CYP1A1 and IDO mRNA in AHR^−/− splenocytes; assay type: cell-based, mouse; details: null cells, SU5416 500 nM or IFN-γ 100 ng/ml, 4 hours
Description: An important role for the AHR in the immune system, and specifically T-cell differentiation, has been recognized and continues to be characterized in the literature, [7]. Some ligands of the AHR have the ability to enhance Treg differentiation from naïve T-cells (TCDD, kynurenine), while others direct differentiation towards Th17 effector cells (FICZ). […] IDO has long been known to play a role in Treg generation, and may be central to the mechanism of Dendritic Cell (DC)-directed Treg generation. We as well as others have previously shown that IDO mRNA can be induced by ligands of the AHR, and that the mechanisms of IDO-directed Treg generation may depend on the AHR [25]. […] As described in the Methods, naïve T-cells were sorted using magnetic bead separation, and placed in culture for 5 days with allogeneic pDCs separated from BALB/C mice. SU5416, TCDD, FICZ, or media alone was added at the start of culture. After 5 days, cells were collected and mRNA harvested for qPCR analysis of IDO and FoxP3. […] We used a dose of 2 ng/ml TGF-β, which in our hands has been a suboptimal dose for Treg generation (4 ng/ml has been optimal in our hands). […]
A. Spleens were harvested from mice and processed in the standard fashion. […] Same assay as A, but mRNA for CYP1B1 and IDO were measured. […] Same assay as in C, but IDO mRNA was assessed. * - p≤0.05. * - p≤0.01. […]

[3] = test system: human 101L-hepatoma cells; experiment: Duration of DRE-luciferase activation; assay type: cell-based; details: for luciferase activity: 100 nM
[4] = test system: naïve T-cells with allogeneic BALB/C pDCs; experiment: pDC/T cell coculture, qPCR of IDO and FoxP3; assay type: cell-based, mouse; details: 5 days, SU5416 500 nM, TCDD 10 nM
Description: An important role for the AHR in the immune system, and specifically T-cell differentiation, has been recognized and continues to be characterized in the literature, [7]. Some ligands of the AHR have the ability to enhance Treg differentiation from naïve T-cells (TCDD, kynurenine), while others direct differentiation towards Th17 effector cells (FICZ). […] IDO has long been known to play a role in Treg generation, and may be central to the mechanism of Dendritic Cell (DC)-directed Treg generation. […] As described in the Methods, naïve T-cells were sorted using magnetic bead separation, and placed in culture for 5 days with allogeneic pDCs separated from BALB/C mice. […] After 5 days, cells were collected and mRNA harvested for qPCR analysis of IDO and FoxP3. […] Naïve T cells were placed in culture with IL-6 and TGF-β, and harvested after 3 days of culture.
A. Spleens were harvested from mice and processed in the standard fashion. […] Same assay as A, but mRNA for CYP1B1 and IDO were measured. C.
Naive CD4^+CD25^− T cells were isolated from WT and AHR-null mice and cocultured with BALB/cJ pDCs isolated using the Miltenyi Mouse pDC Isolation Kit (Miltenyi Biotec) at a ratio of 20∶1 or 10∶1 as previously described (13). […] On day 5, cells were harvested and subjected to qPCR analysis.

[5] = test system: AHR^d; design: method as in PMID 16242735; details: cited from earlier work
[6] = molecular target: wild-type AHR (pTarget-mAHR) (Mus musculus, UniProt P30561); experiment: DRE-luciferase in COS-1 cells transfected with wild-type mAHR
Description: Figure 4 Splenocytes from wild-type and AHR^d mice analyzed by qPCR for CYP1A1. […] After 4 hours they were analyzed by qPCR for CYP1A1 analysis. The curves are normalized from 0 to 100% response. […] Cos-1 cells were transfected with an AHR containing the same point mutation (valine for alanine) thought to be responsible for the low affinity of the AHR^d isoform compared to AHR^b, and compared to the wild-type AHR response. These cells also harbor a luciferase gene next to the DRE. C. Cos-1 cells were exposed to TCDD. […] The graphs represent normalized data from 0 response to 100% response. They are representative of 2 independent experiments.
These cells also harbor a luciferase gene next to the DRE. […] The data in this figure is normalized from 0 to 100% response.
After 4 hours of treatment, cells were assayed with dual luciferase® reporter assay system (Promega, Madison, WI). The expressed luciferase activity was measured by MicroLumat Plus luminometer (Berthold Technologies, Hartfordshire, UK).

Chain of wild-type AHR (pTarget-mAHR) (P30561 10-848): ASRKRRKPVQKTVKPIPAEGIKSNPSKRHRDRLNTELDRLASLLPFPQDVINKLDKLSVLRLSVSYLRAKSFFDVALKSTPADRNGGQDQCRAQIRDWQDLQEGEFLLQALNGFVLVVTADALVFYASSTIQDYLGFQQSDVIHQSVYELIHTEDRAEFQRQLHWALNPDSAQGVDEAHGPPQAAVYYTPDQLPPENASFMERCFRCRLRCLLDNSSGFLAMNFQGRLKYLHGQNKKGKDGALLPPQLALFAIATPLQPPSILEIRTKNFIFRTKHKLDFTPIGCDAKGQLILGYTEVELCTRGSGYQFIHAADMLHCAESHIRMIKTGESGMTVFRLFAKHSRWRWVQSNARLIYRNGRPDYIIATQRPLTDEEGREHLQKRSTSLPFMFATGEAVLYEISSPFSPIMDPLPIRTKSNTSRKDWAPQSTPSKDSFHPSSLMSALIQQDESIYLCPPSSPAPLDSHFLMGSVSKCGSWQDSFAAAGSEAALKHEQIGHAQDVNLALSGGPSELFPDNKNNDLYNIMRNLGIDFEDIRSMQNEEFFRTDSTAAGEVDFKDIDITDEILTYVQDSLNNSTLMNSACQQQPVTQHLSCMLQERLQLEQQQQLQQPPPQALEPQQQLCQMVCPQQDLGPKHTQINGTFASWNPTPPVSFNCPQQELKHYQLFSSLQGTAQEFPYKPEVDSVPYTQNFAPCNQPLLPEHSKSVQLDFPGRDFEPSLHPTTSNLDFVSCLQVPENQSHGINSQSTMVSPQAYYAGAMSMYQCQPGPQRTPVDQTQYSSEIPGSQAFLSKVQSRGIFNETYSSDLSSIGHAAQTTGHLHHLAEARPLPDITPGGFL

Cc1cc(C)c(C=C2C(=O)Nc3ccccc32)[nH]1 [SU5416, 3-(3,5-dimethyl-1H-pyrrol-2-ylmethylene)-1,3-dihydro-indole-2-one]
hepatic EROD activity [1]: dose-dependent increase
IDO mRNA induction [2]: not null cells
luciferase activity as percent of TCDD response (1 nM) [3]: ≤ 20%
luciferase activity ([3]; 4 hours): has activity
luciferase activity ([3]; 24 hours): no longer causes luciferase activity
FoxP3 mRNA [4]: generated; also recorded: to a greater extent than TCDD
IDO mRNA [4]: generated; also recorded: to a greater extent than TCDD

Clc1cc2c(cc1Cl)Oc1cc(Cl)c(Cl)cc1O2 [TCDD, 2,3,7,8-tetrachlorodibenzo-p-dioxin]
duration of DRE-binding ([3]; 1 nM, 4 to 96 hours): long duration DRE-binding
binding affinity of AHR^d relative to AHR^b [5]: one-fifteenth to one-twentieth
FoxP3 mRNA [4]: upregulation was also seen
IDO mRNA [4]: upregulation was also seen
EC50 [6]: 730 pM
